Assay results as given in ChEMBL document CHEMBL1137802, “Specific antioxidant activity of caffeoyl derivatives and other natural phenolic compounds: LDL protection against oxidation and decrease in the proinflammatory lysophosphatidylcholine production” (J Nat Prod, 2001).

Experiments:
Format in all cases: functional, cell-free
[1] = Antioxidant activity against Cu2+-induced lipid peroxidation in human plasma LDL assessed as lysophosphatidylcholine formation at 20 umol/L preincubated for 1 hr before Cu2+ challenge measured after 360 mins
[2] = Antioxidant activity against Cu2+-induced lipid peroxidation in human plasma LDL assessed as lysophosphatidylcholine formation at 5 umol/L preincubated for 1 hr before Cu2+ challenge measured after 60 mins
[3] = Antioxidant activity against Cu2+-induced lipid peroxidation in human plasma LDL assessed as conjugated diene formation at 10 umol/L preincubated for 1 hr before Cu2+ challenge measured after 90 mins
[4] = Antioxidant activity against Cu2+-induced lipid peroxidation in human plasma LDL assessed as lysophosphatidylcholine formation at 20 umol/L preincubated for 1 hr before Cu2+ challenge measured after 60 mins
[5] = Antioxidant activity against Cu2+-induced lipid peroxidation in human plasma LDL assessed as lysophosphatidylcholine formation at 20 umol/L preincubated for 1 hr before Cu2+ challenge measured after 270 mins
[6] = Antioxidant activity against Cu2+-induced lipid peroxidation in human plasma LDL assessed as maximal compound concentration at 20 umol/L preincubated for 1 hr before Cu2+ challenge measured after 150 mins relative to compound present at 0 min
[7] = Antioxidant activity against Cu2+-induced lipid peroxidation in human plasma LDL assessed as conjugated diene formation at 10 umol/L preincubated for 1 hr before Cu2+ challenge measured after 270 mins
[8] = Antioxidant activity against Cu2+-induced lipid peroxidation in human plasma LDL assessed as maximal compound concentration at 20 umol/L preincubated for 1 hr before Cu2+ challenge measured after 270 mins relative to compound present at 0 min
[9] = Antioxidant activity against Cu2+-induced lipid peroxidation in human plasma LDL assessed as conjugated diene formation at 10 umol/L preincubated for 1 hr before Cu2+ challenge measured after 210 mins
[10] = Antioxidant activity against Cu2+-induced lipid peroxidation in human plasma LDL assessed as maximal compound concentration at 20 umol/L preincubated for 1 hr before Cu2+ challenge measured after 60 mins relative to compound present at 0 min
[11] = Antioxidant activity against Cu2+-induced lipid peroxidation in human plasma LDL assessed as vitamin E consumption at 10 umol/L preincubated for 1 hr before Cu2+ challenge measured after 30 mins
[12] = Antioxidant activity against Cu2+-induced lipid peroxidation in human plasma LDL assessed as maximal compound concentration at 10 umol/L preincubated for 1 hr before Cu2+ challenge measured after 180 mins relative to compound present at 0 min
[13] = Antioxidant activity against Cu2+-induced lipid peroxidation in human plasma LDL assessed as vitamin E consumption at 20 umol/L preincubated for 1 hr before Cu2+ challenge measured after 210 mins
[14] = Antioxidant activity against Cu2+-induced lipid peroxidation in human plasma LDL assessed as vitamin E consumption at 5 umol/L preincubated for 1 hr before Cu2+ challenge measured after 45 mins
[15] = Antioxidant activity against Cu2+-induced lipid peroxidation in human plasma LDL assessed as lysophosphatidylcholine formation at 10 umol/L preincubated for 1 hr before Cu2+ challenge measured after 60 mins
[16] = Antioxidant activity against Cu2+-induced lipid peroxidation in human plasma LDL assessed as lysophosphatidylcholine formation preincubated for 1 hr before Cu2+ challenge
[17] = Antioxidant activity against Cu2+-induced lipid peroxidation in human plasma LDL assessed as maximal compound concentration at 10 umol/L preincubated for 1 hr before Cu2+ challenge measured after 30 mins relative to compound present at 0 min
[18] = Antioxidant activity against Cu2+-induced lipid peroxidation in human plasma LDL assessed as lysophosphatidylcholine formation at 10 umol/L preincubated for 1 hr before Cu2+ challenge measured after 150 mins
[19] = Antioxidant activity against Cu2+-induced lipid peroxidation in human plasma LDL assessed as vitamin E consumption at 5 umol/L preincubated for 1 hr before Cu2+ challenge measured after 60 mins
[20] = Antioxidant activity against Cu2+-induced lipid peroxidation in human plasma LDL assessed as vitamin E consumption at 10 umol/L preincubated for 1 hr before Cu2+ challenge measured after 150 mins
[21] = Antioxidant activity against Cu2+-induced lipid peroxidation in human plasma LDL assessed as conjugated diene formation at 5 umol/L preincubated for 1 hr before Cu2+ challenge measured after 270 mins
[22] = Antioxidant activity against Cu2+-induced lipid peroxidation in human plasma LDL assessed as vitamin E consumption at 10 umol/L preincubated for 1 hr before Cu2+ challenge measured after 270 mins
[23] = Antioxidant activity against Cu2+-induced lipid peroxidation in human plasma LDL assessed as lysophosphatidylcholine formation at 10 umol/L preincubated for 1 hr before Cu2+ challenge measured after 270 mins
[24] = Antioxidant activity against Cu2+-induced lipid peroxidation in human plasma LDL assessed as vitamin E consumption at 5 umol/L preincubated for 1 hr before Cu2+ challenge measured after 150 mins
[25] = Antioxidant activity against Cu2+-induced lipid peroxidation in human plasma LDL assessed as maximal compound concentration at 5 umol/L preincubated for 1 hr before Cu2+ challenge measured after 180 mins relative to compound present at 0 min
[26] = Antioxidant activity against Cu2+-induced lipid peroxidation in human plasma LDL assessed as maximal compound concentration at 5 umol/L preincubated for 1 hr before Cu2+ challenge measured after 45 mins relative to compound present at 0 min
[27] = Antioxidant activity against Cu2+-induced lipid peroxidation in human plasma LDL assessed as conjugated diene formation at 20 umol/L preincubated for 1 hr before Cu2+ challenge measured after 60 mins
[28] = Antioxidant activity against Cu2+-induced lipid peroxidation in human plasma LDL assessed as conjugated diene formation at 20 umol/L preincubated for 1 hr before Cu2+ challenge measured after 180 mins
[29] = Antioxidant activity against Cu2+-induced lipid peroxidation in human plasma LDL assessed as lysophosphatidylcholine formation at 10 umol/L preincubated for 1 hr before Cu2+ challenge measured after 210 mins
[30] = Antioxidant activity against Cu2+-induced lipid peroxidation in human plasma LDL assessed as maximal compound concentration at 10 umol/L preincubated for 1 hr before Cu2+ challenge measured after 60 mins relative to compound present at 0 min
[31] = Antioxidant activity against Cu2+-induced lipid peroxidation in human plasma LDL assessed as vitamin E consumption at 5 umol/L preincubated for 1 hr before Cu2+ challenge measured after 90 mins
[32] = Antioxidant activity against Cu2+-induced lipid peroxidation in human plasma LDL assessed as lysophosphatidylcholine formation at 5 umol/L preincubated for 1 hr before Cu2+ challenge measured after 150 mins
[33] = Antioxidant activity against Cu2+-induced lipid peroxidation in human plasma LDL assessed as lysophosphatidylcholine formation at 20 umol/L preincubated for 1 hr before Cu2+ challenge measured after 120 mins
[34] = Antioxidant activity against Cu2+-induced lipid peroxidation in human plasma LDL assessed as conjugated diene formation at 20 umol/L preincubated for 1 hr before Cu2+ challenge measured after 150 mins

## CC(C)(Sc1cc(C(C)(C)C)c(O)c(C(C)(C)C)c1)Sc1cc(C(C)(C)C)c(O)c(C(C)(C)C)c1
[1]
  Activity: 1.9%
[2]
  Activity: 2.5%
[3]
  Activity: 4%
[4]
  Activity: 1.2%
[5]
  Activity: 1.5%
[6]
  Activity: 41.2%
[7]
  Activity: 79.9%
[8]
  Activity: 34.6%
[9]
  Activity: 76.3%
[10]
  Activity: 51.7%
[11]
  Activity: 17.8%
[12]
  Activity: 31.2%
[13]
  Activity: 0%
[14]
  Activity: 7.5%
[15]
  Activity: 0.7%
[16]
  Activity: Dose-dependent effect
[17]
  Activity: 82%
[18]
  Activity: 3%
[19]
  Activity: 0%
[20]
  Activity: 0%
[21]
  Activity: 87.1%
[22]
  Activity: 0%
[23]
  Activity: 12.9%
[24]
  Activity: 0%
[25]
  Activity: 45.3%
[26]
  Activity: 114%
[27]
  Activity: 1.3%
[28]
  Activity: 2.6%
[29]
  Activity: 9.1%
[30]
  Activity: 34.1%
[31]
  Activity: 0%
[32]
  Activity: 17.5%
[33]
  Activity: 1%
[34]
  Activity: 1.1%
